From patent publication US9796753B2, “N-substituted indenoisoquinolines and syntheses thereof” (Purdue Research Foundation, priority 2005, dated 2017)
Like-named read-outs stand apart in the source and are kept apart here.

Experiments:
breast MDA-MB-435 = assay: COMPARE screening (NCI human cancer cell line screen), cytotoxicity GI50; type: cell-based; settings: Homo sapiens
colon HCT-116 = assay: as above; type: cell-based
Method in brief: (§1)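 Five tenfold concentrations, 100 down to 0.01 μM, are applied for 48 h; growth is measured by sulforhodamine B absorbance against control.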

renal SN12C = assay: as above; type: cell-based
Method in brief: as §1

melanoma UACC-62 = assay: as above; type: cell-based
Method in brief: as §1

lung HOP-62 = assay: as above; type: cell-based
Method in brief: as §1

ovarian OVCAR-3 = assay: as above; type: cell-based
Method in brief: as §1

CNS SF-539 = assay: as above; type: cell-based
Method in brief: as §1

prostate DU-145 = assay: as above; type: cell-based
Method in brief: as §1

[1] = system: all human cancer cell lines successfully tested; assay: NCI screen mean graph midpoint (MGM) for growth inhibition; type: cell-based
Method in brief: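 NCI60 panel cells exposed to compound at 100, 10, 1, 0.1 and 0.01 μM for 48 h, then sulforhodamine B staining. Percentage growth versus control plotted against log concentration; MGM is the midpoint across all lines tested.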

breast MCF-7 = assay: NCI60 antiproliferative activity, cytotoxicity GI50; type: cell-based, human
Protocol: Selected compounds were tested for antiproliferative activity in the National Cancer Institute's developmental therapeutics assay 60 cell line screen (NCI60). The cells were incubated with the tested compounds at 100, 10, 1, 0.1, and 0.01 μM concentrations for 48 h before treatment with sulforhodamine B dye. Optical densities were recorded, and their ratios relative to that of the control were plotted as percentage growth against the log 10 of the tested compound concentrations.

[2] = MDA-MB-435, read-out: cytotoxicity (GI50) breast MDA-MB-435
[3] = Homo sapiens, HCT-116, read-out: cytotoxicity (GI50) colon HCT-116
[4] = Homo sapiens, SN12C, read-out: cytotoxicity (GI50) renal SN12C
[5] = Homo sapiens, UACC-62, read-out: cytotoxicity (GI50) melanoma UACC-62
[6] = Homo sapiens, HOP-62, read-out: cytotoxicity (GI50) lung HOP-62
[7] = Homo sapiens, OVCAR-3, read-out: cytotoxicity (GI50) ovarian OVCAR-3
[8] = Homo sapiens, CNSSF-539, read-out: cytotoxicity (GI50) CNS SF-539
[9] = Homo sapiens, DU-145, read-out: cytotoxicity (GI50) prostate DU-145
[10] = Table 1, average GI50 of all cell lines tested (approximately 55), test range 10^−8 to 10^−4 molar

SMILES: Cl.NCCCCCCCn1c2c(c3ccccc3c1=O)C(=O)c1ccccc1-2 [Compound 5aq, 6-(7-Aminoheptyl)-5,6-dihydro-5,11-dioxo-11H-indeno[1,2-c]isoquinoline Hydrochloride]
- GI50 (breast MDA-MB-435; [2]): 2.24 µM
- GI50 (colon HCT-116; [3]): 1.26 µM
- GI50 (renal SN12C; [4]): 1.66 µM
- GI50 (melanoma UACC-62; [5]): 2 µM
- GI50 (lung HOP-62; [6]): 1.2 µM
- GI50 (ovarian OVCAR-3; [7]): 1.7 µM
- GI50 (CNS SF-539; [8]): 1.78 µM
- GI50 (prostate DU-145; [9]): 0.832 µM
- melting point: 228 to 231 °C
- MGM (mean graph midpoint for growth inhibition) [1, 10]: 1.66 ± 0.155 µM

SMILES: Cl.NCCCCCCCCn1c2c(c3ccccc3c1=O)C(=O)c1ccccc1-2 [Compound 5ar, 6-(8-Aminooctyl)-5,6-dihydro-5,11-dioxo-11H-indeno[1,2-c]isoquinoline Hydrochloride]
- GI50 (breast MDA-MB-435; [2]): 5.62 µM
- GI50 (colon HCT-116; [3]): 1.66 µM
- GI50 (renal SN12C; [4]): 3.47 µM
- GI50 (melanoma UACC-62; [5]): 3.8 µM
- GI50 (lung HOP-62; [6]): 2.14 µM
- GI50 (ovarian OVCAR-3; [7]): 3.47 µM
- GI50 (CNS SF-539; [8]): 2.82 µM
- GI50 (prostate DU-145; [9]): 3.39 µM
- melting point: 182 to 185 °C
- MGM (mean GI50 across cell lines) [1, 10]: 3.71 µM

SMILES: Cl.NCCCCCCCCCn1c2c(c3ccccc3c1=O)C(=O)c1ccccc1-2 [Compound 5as, 6-(9-Aminononyl)-5,6-dihydro-5,11-dioxo-11H-indeno[1,2-c]isoquinoline Hydrochloride]
- GI50 (breast MDA-MB-435; [2]): 9.55 µM
- GI50 (colon HCT-116; [3]): 6.46 µM
- GI50 (renal SN12C; [4]): 8.51 µM
- GI50 (melanoma UACC-62; [5]): 9.33 µM
- GI50 (lung HOP-62; [6]): 6.76 µM
- GI50 (ovarian OVCAR-3; [7]): 9.55 µM
- GI50 (CNS SF-539; [8]): 9.77 µM
- GI50 (prostate DU-145; [9]): 6.03 µM
- melting point: 204 to 207 °C
- MGM (mean GI50 across cell lines) [1, 10]: 8.13 µM

SMILES: Cl.NCCCCCCCCCCn1c2c(c3ccccc3c1=O)C(=O)c1ccccc1-2 [Compound 5at, 6-(10-Aminodecyl)-5,6-dihydro-5,11-dioxo-11H-indeno[1,2-c]isoquinoline Hydrochloride]
- GI50 (breast MDA-MB-435; [2]): 11.7 µM
- GI50 (colon HCT-116; [3]): 2.75 µM
- GI50 (renal SN12C; [4]): 3.31 µM
- GI50 (melanoma UACC-62; [5]): 13.8 µM
- GI50 (lung HOP-62; [6]): 4.79 µM
- GI50 (ovarian OVCAR-3; [7]): 10.7 µM
- GI50 (CNS SF-539; [8]): 1.82 µM
- GI50 (prostate DU-145; [9]): 3.47 µM
- melting point: 189 to 192 °C
- MGM (mean GI50 across cell lines) [1, 10]: 5.50 µM

SMILES: Cl.NCCCCCCCCCCCn1c2c(c3ccccc3c1=O)C(=O)c1ccccc1-2 [Compound 5au, 6-(11-Aminoundecyl)-5,6-dihydro-5,11-dioxo-11H-indeno[1,2-c]isoquinoline Hydrochloride]
- GI50 (breast MDA-MB-435; [2]): 11 µM
- GI50 (colon HCT-116; [3]): 1.91 µM
- GI50 (renal SN12C; [4]): 2 µM
- GI50 (melanoma UACC-62; [5]): 1.7 µM
- GI50 (lung HOP-62; [6]): 2.19 µM
- GI50 (ovarian OVCAR-3; [7]): 2.09 µM
- GI50 (CNS SF-539; [8]): 2.04 µM
- GI50 (prostate DU-145; [9]): 4.57 µM
- melting point: 125 to 129 °C
- MGM (mean GI50 across cell lines) [1, 10]: 5.13 µM

SMILES: Cl.NCCCCCCCCCCCCn1c2c(c3ccccc3c1=O)C(=O)c1ccccc1-2 [Compound 5av, 6-(12-Aminododecyl)-5,6-dihydro-5,11-dioxo-11H-indeno[1,2-c]isoquinoline Hydrochloride]
- GI50 (breast MDA-MB-435; [2]): 19.5 µM
- GI50 (renal SN12C; [4]): 13.5 µM
- GI50 (melanoma UACC-62; [5]): 14.8 µM
- GI50 (lung HOP-62; [6]): 17 µM
- GI50 (ovarian OVCAR-3; [7]): 17.8 µM
- GI50 (CNS SF-539; [8]): 18.2 µM
- GI50 (prostate DU-145; [9]): 19.1 µM
- melting point: 175 to 178 °C
- MGM (mean GI50 across cell lines) [1, 10]: 18.2 µM

SMILES: COc1cc2c(=O)n(CCCN3CCOCC3)c3c(c2cc1O)C(=O)c1cc2c(cc1-3)OCO2 [Compound 18]
- GI50 (colon HCT-116): 0.39 µM
- GI50 (renal SN12C): 0.2 µM
- GI50 (melanoma UACC-62): 0.3 µM
- GI50 (lung HOP-62): 0.3 µM
- GI50 (ovarian OVCAR-3): 0.9 µM
- GI50 (CNS SF-539): 0.3 µM
- GI50 (prostate DU-145): 0.3 µM
- GI50 (breast MCF-7): 0.1 µM
- MGM (mean GI50 across cell lines) ([1]; Table 6, all human cancer cell lines successfully tested, range 10^−8 to 10^−4 molar, with standard error): 0.4 ± 0.005 µM

SMILES: CC[C@@]1(O)C(=O)OCc2c1cc1n(c2=O)Cc2cc3ccccc3nc2-1 [Compound S-1, camptothecin, reference compound]
- GI50 (breast MDA-MB-435; MDA-MB-435, Table 1, concentration corresponding to 50% growth inhibition, read-out: cytotoxicity (GI50) breast MDA-MB-435): 0.04 µM
- GI50 (breast MDA-MB-435; breast MDA-MB-435, concentration corresponding to 50% growth inhibition, read-out: cytotoxicity (GI50 in μM) breast MDA-MB-435): 0.04 µM
- GI50 (colon HCT-116; Homo sapiens, HCT-116, Table 1, concentration corresponding to 50% growth inhibition, read-out: cytotoxicity (GI50) colon HCT-116): 0.03 µM
- GI50 (colon HCT-116; Homo sapiens, HCT-116, Table 6, NCI60, 48 h, sulforhodamine B, read-out: Cytotoxicity (GI50) Colon HCT-116): 0.03 µM
- GI50 (colon HCT-116; Homo sapiens, colon HCT-116, concentration corresponding to 50% growth inhibition, read-out: cytotoxicity (GI50 in μM) colon HCT-116): 0.03 µM
- GI50 (renal SN12C; Homo sapiens, SN12C, Table 1, concentration corresponding to 50% growth inhibition, read-out: cytotoxicity (GI50) renal SN12C): 0.02 µM
- GI50 (renal SN12C; Homo sapiens, SN12C, Table 6, NCI60, 48 h, sulforhodamine B, read-out: Cytotoxicity (GI50) renal SN12C): 0.02 µM
- GI50 (renal SN12C; Homo sapiens, renal SN12C, concentration corresponding to 50% growth inhibition, read-out: cytotoxicity (GI50 in μM) renal SN12C): 0.02 µM
- GI50 (melanoma UACC-62; Homo sapiens, UACC-62, Table 1, concentration corresponding to 50% growth inhibition, read-out: cytotoxicity (GI50) melanoma UACC-62): 0.01 µM
- GI50 (melanoma UACC-62; Homo sapiens, UACC-62, Table 6, NCI60, 48 h, sulforhodamine B, read-out: Cytotoxicity (GI50) melanoma UACC-62): 0.01 µM
- GI50 (melanoma UACC-62; Homo sapiens, melanoma UACC-62, concentration corresponding to 50% growth inhibition, read-out: cytotoxicity (GI50 in μM) melanoma UACC-62): 0.01 µM
- GI50 (lung HOP-62; Homo sapiens, HOP-62, Table 1, concentration corresponding to 50% growth inhibition, read-out: cytotoxicity (GI50) lung HOP-62): 0.01 µM
- GI50 (lung HOP-62; Homo sapiens, HOP-62, Table 6, NCI60, 48 h, sulforhodamine B, read-out: Cytotoxicity (GI50) lung HOP-62): 0.01 µM
- GI50 (lung HOP-62; Homo sapiens, lung HOP-62, concentration corresponding to 50% growth inhibition, read-out: cytotoxicity (GI50 in μM) lung HOP-62): 0.01 µM
- GI50 (CNS SF-539; Homo sapiens, CNSSF-539, CNS SF-539, concentration corresponding to 50% growth inhibition, read-out: cytotoxicity (GI50 in μM) CNS SF-539): 0.01 µM
- GI50 (CNS SF-539; Homo sapiens, CNSSF-539, Table 1, concentration corresponding to 50% growth inhibition, read-out: cytotoxicity (GI50) CNS SF-539): 0.01 µM
- GI50 (prostate DU-145; Homo sapiens, DU-145, Table 1, concentration corresponding to 50% growth inhibition, read-out: cytotoxicity (GI50) prostate DU-145): 0.01 µM
- GI50 (prostate DU-145; Homo sapiens, DU-145, Table 6, NCI60, 48 h, sulforhodamine B, read-out: Cytotoxicity (GI50) prostate DU-145): 0.01 µM
- GI50 (prostate DU-145; Homo sapiens, prostate DU-145, concentration corresponding to 50% growth inhibition, read-out: cytotoxicity (GI50 in μM) prostate DU-145): 0.01 µM
- GI50 (breast MCF-7; Homo sapiens, MCF7, Table 6, NCI60, 48 h, sulforhodamine B, read-out: Cytotoxicity (GI50) breast MCF-7): 0.01 µM
- GI50 ([1]; Homo sapiens, read-out: MGM GI50): 0.0405 ± 0.0187 µM
- MGM (mean graph midpoint for growth inhibition) [1, 10]: .0405 ± 0.0187 µM
- GI50 ([1]; all human cancer cell lines successfully tested, read-out: MGM (mean graph midpoint for growth inhibition)): 0.0405 ± 0.0187 µM
